Among the data in a melting point compilation (Tetko et al.; mined from patent text by program, amines drawn as free bases though some values may be those of a salt) are melting point values, retold here.

For the compound `CCCc1ccnc2c(=O)[nH]c(-c3cc(S(=O)(=O)NCCN4CCNC4=O)ccc3OCC)nc12`, the melting point was 221 to 222 °C.
Take `O=C(CCC(=O)N1CCC(c2ccc(Cl)cc2)CC1)c1ccc2c(c1)CNCCC2`: the melting point lay in the range of 122 to 124 °C.
Next, `CCN(CC)CCOc1ccc(Nc2ncc3cc(-c4c(Cl)cccc4Cl)c(=O)n(C)c3n2)cc1`: 141 to 143 °C.
In the case of `CC(C)(C)C(=O)c1ccc(CC(Cc2ccc(C(=O)C(C)(C)C)cc2)C(=O)O)cc1`, the melting point lay in the range of 107 to 109 °C.
Compound `CC(C)(C)OC(=O)c1ccc(C=Cc2cnc(N)c(C#N)c2)cc1` showed a melting point of 190 to 195 °C.
Compound `Cc1ncc2cc(-c3c(Cl)cccc3Br)c(N)nc2n1` had a melting point of 272 to 274 °C.
`CCOC(=O)C1=C(C)Nc2cncn2C1c1cccc([N+](=O)[O-])c1` (stereo not given) had a melting point of 196 to 197 °C.
For `COc1ccccc1[C@H](c1cccc2ccccc12)[C@@](C)(C#N)C(=O)N1CCN(c2cccc(Br)c2)CC1`, the melting point lay within 180 to 182 °C.
Compound `COc1ccc(Cc2nc3n(c2Cc2ccc(OC)cc2)CCS3)cc1` registered a melting point of 154 to 156 °C.
Next, `CCCCCCCCCCCCCCCCC[C@@H](C[C@@H]1OC(=O)[C@H]1CC)OC(=O)[C@H](CC(C)C)NC=O`: 60 to 61 °C.
Compound `COc1cc(C=O)c([N+](=O)[O-])cc1OCCCl` yielded a melting point of 148 to 150 °C.
With `COc1ccc(-c2cc(S(N)(=O)=O)sc2-c2ccc(OC)c(S(N)(=O)=O)c2)cc1S(N)(=O)=O` the figure was 242 to 244 °C; with `Cc1c(C(=O)O)sc2c(Br)cccc12`, 311 to 312 °C.
Next, `Cc1cc2c(nc1C(O)c1cccs1)CCCCC2` (stereo not given): 102 to 104 °C; `CCOC(=O)C1=C(COCCOCCN)NC(C)=C(C(=O)OC)C1c1cccc(Cl)c1Cl` (single isomer, unassigned; (-)): 69 to 71 °C; `S=C(Cc1cccs1)N1CCCCC1`: 51.5 to 52 °C.
Compound `COC(=O)c1cc(O)c(O)c([N+](=O)[O-])c1` yielded a melting point of 144 to 145 °C.
With `CCOC(=O)C1CCN(C(=O)COc2cc(-c3ccccc3)nc3ccccc23)CC1`, the melting point was 120 °C.
Next, `CC(C)(C)OC(=O)N1CCN(c2ncnc3c2cnn3Cc2cccc(Br)n2)CC1`: 126 to 128 °C; `COc1ccc2c(c1)CCC2=NNS(=O)(=O)c1ccc(C)cc1`: 195 to 196 °C.
Regarding `Cn1cc(-c2cccc(-n3ncc4cc(C(C)(C)C)cc(F)c4c3=O)c2CO)cc(Nc2ccc(C(C)(C)O)cn2)c1=O`, the melting point lay in the range of 200 to 205 °C.
Regarding `O=c1c(-c2ccccc2)ccc2n1CCc1ccccc1-2`, the melting point amounted to 140 °C.
As for `CCC(=O)Nc1c([N+](=O)[O-])cnn1-c1ncc(Cl)cc1Cl`, the melting point was 53 to 56 °C.
`CCC(C)N(C)C(=O)c1cc2ccccc2c(-c2ccccc2F)n1` (stereo not given) displayed a melting point of 85 °C.
`CC[C@H](COC)n1cc(Br)nc(N2CCc3cc(OC)c(F)c(Cl)c32)c1=O`: the melting point lay within 150 to 152 °C.
In the case of `COC(CN(C)CC1CSC2=C(O1)c1ccccc1C(=O)C2=O)OC` (stereo not given), the melting point was 80 to 82 °C.
Compound `O=c1c2cnc3ccc(F)cc3c2on1-c1ccccc1` came in with a melting point of 174 °C.
Next, `CCCCCCCCCCCCOC(=O)NCCC(=O)O`: 88 to 90 °C; `CC(C)CCn1cc(C(=O)O)c2ccc(Cl)cc21`: 53 to 55 °C; `N#Cc1c(N2CCN(C(=O)c3cccs3)CC2)c2cccnc2n(Cc2ccccc2F)c1=O`: 286 °C.
`COC(=O)[C@H]1CC[C@H](N2CCN(c3ccc(C4CCN(C(=O)C(F)(F)F)CC4)cc3)C2=O)CC1` displayed a melting point of 183 to 185 °C.
`CCCCCCCCCCCCCCCCNc1ccc(C(=O)NS(=O)(=O)c2ccc(C(C)(C)C)cc2)cc1` had a melting point of 173 to 176 °C.
`COc1ccc2cc3ccccc3cc2c1` displayed a melting point of 182 to 184 °C.
In the case of `Fc1ccc([C@@]2(Cn3nc[nH]c3=S)O[C@@H]2c2ccccc2F)c(F)c1` (relative stereo), the melting point was in the range of 144 to 148 °C.
The compound `CCN1CCc2cc(Nc3ncc(Cl)c(Nc4ccc(N5CCOCC5)cc4OC)n3)c(OC)cc2CC1=O` showed a melting point of 212 to 214 °C.
For the compound `CCC1c2cccn2-c2ccc(F)cc2N1C(=O)c1cccc(OC)c1` (stereo not given), the melting point is 70 to 74 °C.
With `CC(C)Nc1ccc(C2=NNC(=O)Cc3cc4c(cc32)OCO4)cc1` the figure was 144 to 146 °C; with `COc1ccc2c(c1)CC(COS(=O)(=O)c1ccc(C)cc1)CC2` (stereo not given), 64 to 66 °C; with `CC(C)(C)OC(=O)N1CCN(c2cccc3cc(N)cnc23)CC1`, 168 to 173 °C.
As for `O=C1c2ccccc2CSc2ccc(Br)cc21`, the melting point is 151 to 152 °C.
The compound `CC(=O)N1C(C)(C)CC(OC(=O)CC(c2cc(C(C)(C)C)c(O)cc2C)c2cc(C(C)(C)C)c(O)cc2C)CC1(C)C` had a melting point of 270 °C.
With `FN(F)C12CC3CC(CC(C3)C1)C2` the figure was 113 to 115 °C; with `COc1ccc(C2CC(=O)CCC2[N+](=O)[O-])cc1OC` (stereo not given), 147 to 148 °C; with `CNc1cc(Nc2ccc(OC)cc2)ncn1`, 174 to 182 °C.
Next, `CCOC(=O)c1ccc(N=C(Nc2ccc(C(=O)OCC)cc2)c2ccc(C#N)cc2)cc1`: 205 to 213 °C; `O=C(Nc1ccc(F)cc1)Nn1cnc2ccccc2c1=O`: 237 to 238 °C.
With `CCCCCCCCOC(=O)C(CC(C)C)NC(=O)c1cc([N+](=O)[O-])cc([N+](=O)[O-])c1` (stereo not given) the figure was 71 to 73 °C; with `CNc1nc2ccc(CCc3nc4cc(C)ccn4c3C)cc2o1`, 203 to 205 °C; with `CS(=O)(=O)c1cc(O)ccc1/C=C/c1ccc(O)cc1`, 244 to 245 °C.
Compound `N#CC(C#N)=CN(N=C(C#N)C#N)c1ccc([N+](=O)[O-])cc1` returned a melting point of 179 to 181 °C.
`CCOC(=O)C(=CNc1ccc([N+](=O)[O-])cc1O)C(=O)c1cc(F)c(F)c(F)c1F`: the melting point came out at 225 °C.
With `CC(C#Cc1ccc(C#N)cc1)N1C(=O)c2ccccc2C1=O` (stereo not given) the figure was 138 to 142 °C; with `Cc1ccc2c(ccn2C)c1O`, 68 °C.
For the compound `O=C(O)C1c2ccccc2CSc2ccc(Br)cc21` (stereo not given), the melting point lay within 185 to 186 °C.
For the compound `Nc1cccc(Cn2c(-c3ccccc3Cl)cc3ccc(Oc4cncnc4)cc32)n1`, the melting point fell in the range of 115 to 117 °C.
With `CCOC(=O)C1=C(C)NC(C)=C(C(=O)OCCN2CCN(C(c3ccc(C)cc3)c3ccc(C)cc3)CC2)C1c1cccc(OC)c1` (stereo not given), the melting point is 75 to 78 °C.
With `CC(CO)c1ccc2c(=O)c3ccccc3ccc2c1` (stereo not given), the melting point was 63 to 66 °C.
With `CNc1cc(F)ccc1C(=O)CS(C)=O` (stereo not given) the figure was 129 to 134 °C; with `Cc1ccc2ccccc2c1COc1ccc(C(=O)NC[C@@H](C(=O)NO)N2CCN(S(C)(=O)=O)CC2)cc1`, 155 °C.
Next, `COc1ccc(C(=O)Nc2ccccc2)cc1NCc1ccc(F)cc1`: 165 to 167 °C; `CC(=N)NS(=O)(=O)C=Cc1ccc(Cl)cc1`: 161 to 163 °C.
Next, `Cc1cccc(OCC2=NCCN2S(C)(=O)=O)c1C`: 142 to 143 °C; `CCCCc1ncc(/C=C(\Cc2cccs2)C(=O)O)n1Cc1ccc(C(N)=O)cc1`: 210 to 212 °C; `CCN(CC)CCN1NC(N)=c2cc3c(nc21)=CC(O)(OC)C=C3` (stereo not given): 232 to 235 °C.
`COc1cc(OCCOC(C)C)cc2nc(-c3cc(C)nc(C)c3)[nH]c(=O)c12` came in with a melting point of 188 to 189 °C.
With `Clc1ccc2c(C3CCN(CC4Cc5ccccc5C4)CC3)c[nH]c2c1Cl`, the melting point is 141 to 142 °C.
`CCOC(=O)C(Cl)C(=O)Nc1ccc(Cl)cc1` (stereo not given) gave a melting point of 104 to 105 °C.
Consider `CCCCCCCCNc1ccc(NCCCCCCCC)c2c1C(=O)c1ccccc1C2=O`, for which the melting point lay within 72 to 74 °C.
`O=C(OCc1ccc([N+](=O)[O-])cc1)C(=O)c1ccccc1C(=O)O`: the melting point lay within 165 to 167 °C.
In turn, `N#Cc1cccnc1N1CCN(CC(=O)Nc2ccccc2[N+](=O)[O-])CC1` had a melting point of 134 to 136 °C.
Compound `Clc1ccc(Nc2ncc(CCc3cccnc3)c3ccccc23)cc1` returned a melting point of 157 to 158 °C.
In turn, `Nc1c(-n2cncn2)cnn1-c1c(Cl)cc(C(F)(F)F)cc1Cl` registered a melting point of 170 to 174 °C.
Next, `CCN(CC)CCNc1nc(N)nc(-c2cc(Cl)ccc2Cl)n1`: 141 to 142 °C; `CCOc1ccc(C23CNCC2C3)cc1` (stereo not given): 48 to 49 °C.
Compound `CCCCCCCc1nc(-c2ccccc2)c(-c2ccccc2)n1CCCCCCCC(=O)O` displayed a melting point of 75 to 76 °C.
With `CCOc1ccc2c(c1)C(C)(c1cc(CN3CCCC3)ccc1Cl)C(=O)N2S(=O)(=O)c1ccc(C(=O)NC(C)(C)C)cc1OC` (stereo not given) the figure was 132 °C; with `O=C(CCl)N(c1ccccc1)c1cccc(Cl)c1`, 94 to 96.5 °C; with `Cc1oc(-c2ccco2)nc1COc1ccc(COc2nn(Cc3ccc(OCc4nc(-c5ccco5)oc4C)cc3)cc2C=O)cc1`, 109 to 110 °C.
Compound `CC(=O)NCc1ccc2c(c1)N(C1CCN(CCc3cccc(F)c3)CC1)CC2` displayed a melting point of 161 to 162 °C.
Next, `O=c1c2ccccc2c(-c2ccccc2)cn1CC1CO1` (stereo not given): 148 °C; `O=C1CCCC2=C1C(c1cccc(Cl)c1)C1=C(CCCC1)N2` (stereo not given): 249 to 250 °C; `COc1cccc([C@H]2O[C@H](CC(=O)Nc3cc4c(c(CCC(=O)O)c3)CCCC4)C(=O)N(CC(C)(C)CO)c3ccc(Cl)cc32)c1OC`: 160 to 162 °C.
`CC(=C1SC(=O)NC1=O)c1ccc(OCCOc2c(-c3ccc(F)c(F)c3)n(C)c3cc(F)ccc3c2=O)cc1` registered a melting point of 270 to 272 °C.
In turn, `CCOc1ccc(-c2ccc3c(c2)C=C(C(=O)Nc2ccc(CN(C)C4CCOCC4)cc2)CCN3C=O)cc1` returned a melting point of 211 to 215 °C.
With `CC(C)Cc1nn(C)c(=O)c2cc(C(O)c3cccc4ccccc34)sc12` (stereo not given) the figure was 165 to 167 °C.

One may read the melting point as the temperature of the solid-liquid transition.
